Reference: patent US10316039B2, “P2X3 and/or P2X2/3 compounds and methods” (Asana Biosciences, LLC, priority 2013, dated 2019)

Tests used:
P2X3 = biological target: T1, P2X3 (UniProt P56373); assay: P2X3 FLIPR intracellular calcium assay; assay type: cell-based; conditions: agonist at EC75, species (human or rat) not given
T1 sequence (P56373 1-397): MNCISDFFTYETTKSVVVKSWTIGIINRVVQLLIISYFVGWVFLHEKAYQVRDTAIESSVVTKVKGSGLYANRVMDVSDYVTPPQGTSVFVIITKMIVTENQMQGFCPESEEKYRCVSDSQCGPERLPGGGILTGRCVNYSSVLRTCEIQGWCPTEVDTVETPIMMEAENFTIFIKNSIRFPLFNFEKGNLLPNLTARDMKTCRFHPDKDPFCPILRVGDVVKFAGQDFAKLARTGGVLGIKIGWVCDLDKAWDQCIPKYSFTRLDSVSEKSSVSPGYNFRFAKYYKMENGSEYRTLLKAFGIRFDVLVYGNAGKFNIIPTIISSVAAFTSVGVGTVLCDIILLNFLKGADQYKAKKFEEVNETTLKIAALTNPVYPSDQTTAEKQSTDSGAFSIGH
Excerpt: The FLIPR® assay utilizes cells which express human or rat P2X3 or P2X2/3 receptors. […] The PCR product obtained containing the protein coding sequence of rat P2X2 was cloned into EcoRV-digested and dephosphorylated vector pIRES-puro3 within the multiple cloning site (MCS). See, FIG. 1A.
Rat P2X3 (NCBI Accession No: X91167) was amplified by PCR from rat brain cDNA. The PCR product obtained containing the protein coding sequence of rat P2X3 was cloned into EcoRV-digested and dephosphorylated vector pCDNA-Hygro within the multiple cloning site (MCS) (FIG. 1B). Rat P2X3 cloned into pcDNA-Hygro was then subcloned into pcDNA-5/TO at HindIII (5′) and XhoI (3′) sites within the multiple cloning site (MCS) of the vector (FIG. 1C).
(§1) Transfection was carried out using super-coiled constructs (purified using QIAGEN kit) in antibiotic free, serum free DMEM using Lipofectamine® 2000 (Invitrogen) transfection agent. The DNA constructs rat P2X2 in pIRES-Puro3 and rat P2X3 in pCDNA5/TO were co-transfected into TRex293 cells in order to generate the rP2X2/3 stable line. 50 μg/mL hygromycin (Invitrogen) and 0.5 μg/mL puromycin (Fermentek) were used for selection of stable clones of rP2X2/3. Rat P2X3 in pCDNA5/TO DNA construct was transfected to CHO-TRex cells to generate the rP2×3 stable line and 500 μg/mL hygromycin (Invitrogen) was used as selection antibiotic. Transfected stable colonies were then functionally verified and robust clones suitable for assay were clonally purified through dilutions.
(§2) Cryo-vial containing 6×10^6 cells (human P2X3-HEK/human P2X2/3-TRex293/rat P2X2/3-TRex293/rat P2X3 TRex-CHO) was thawed in a 37° C. water bath. Cells were suspended in 20 mL of respective cell plating media (See annexure for composition) in a 50 mL centrifuge tube. The cell viability was checked with the help of Trypan Blue dye. Upon washing, cells were plated in a black 384-well clear bottomed, sterile poly-D-lysine coated plate such that, each well contained 10,000 cells (15,000/well for hP2X3) in 30 μL cell plating media. The plate was incubated in a 5% CO2 incubator at 37° C. for 24 h.
(§3) The next day, prior to the assay, the cell plating media was removed from each well by decanting and gentle tapping. Thirty μL of FLIPR Calcium 4 dye solution was added to each well. The plate was incubated at 37° C. for 45 min (60 min for hP2X3). The plate was next equilibrated at room temperature for 15 minutes before placing it in a 384 well FLIPR for the assay.
Dilutions were mixed with assay buffer just before performing the assay.
(§4) Compounds were added to the respective wells of the assay-ready cell plate with the help of the FLIPR and fluorescence readings were captured for 5 min to observe any possible agonistic property of the compounds. The plate was then incubated at room temperature for 15 min. The cells were stimulated with respective agonist EC75 concentration and the fluorescence readings were captured for another 5 min by FLIPR. The difference in fluorescence readings in presence of the compounds were compared with that of the control wells (wells having no compound) to calculate the inhibitory potency of the compounds. The IC50 values of the compounds were determined using the Graph pad Prism software.
(vi) Dye Solution Composition • 1×FLIPR Calcium 4 dye in assay buffer (Molecular devices Cat# R8141) • 1.8 mM Probenecid (Sigma Cat# P8761) • pH adjusted to 7.4

P2X2/3 = biological target: T2, P2X2/3 (Homo sapiens, UniProt P56373+Q9UBL9); assay: P2X2/3 FLIPR intracellular calcium assay; assay type: cell-based; conditions: agonist at EC75, species (human or rat) not given
T2 sequence (Q9UBL9 1-471): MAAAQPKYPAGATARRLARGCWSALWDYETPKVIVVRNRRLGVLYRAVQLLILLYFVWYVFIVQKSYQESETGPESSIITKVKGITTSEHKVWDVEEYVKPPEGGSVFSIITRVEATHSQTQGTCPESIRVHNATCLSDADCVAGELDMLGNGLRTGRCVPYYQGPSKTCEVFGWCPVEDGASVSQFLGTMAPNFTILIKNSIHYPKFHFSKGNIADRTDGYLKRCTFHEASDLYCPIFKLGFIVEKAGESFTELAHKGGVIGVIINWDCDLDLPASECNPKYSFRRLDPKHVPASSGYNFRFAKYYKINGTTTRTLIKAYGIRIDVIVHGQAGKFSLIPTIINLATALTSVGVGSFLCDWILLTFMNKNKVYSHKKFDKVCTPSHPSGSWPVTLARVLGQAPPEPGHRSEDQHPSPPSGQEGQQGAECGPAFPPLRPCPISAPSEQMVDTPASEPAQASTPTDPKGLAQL
T2 sequence (P56373 1-397): T1 sequence (P56373 1-397)
Excerpt: The FLIPR® assay utilizes cells which express human or rat P2X3 or P2X2/3 receptors. Recombinant cells expressing hP2X3 (Cat#6188) and hP2X2/3 (Cat#6179) were procured from Chantest Corp. Rat P2X2 (NCBI Accession No: U14414) was amplified by PCR from PC12 cDNA (a rat adrenal medulla cell line). The PCR product obtained containing the protein coding sequence of rat P2X2 was cloned into EcoRV-digested and dephosphorylated vector pIRES-puro3 within the multiple cloning site (MCS). See, FIG. 1A.
as §1, §2, §3
Compounds were dissolved in DMSO and serially diluted following 11 point half log (3.16 fold) dilution with a starting concentration of 2 mM. Dilutions were mixed with assay buffer just before performing the assay.
as §4
(ii) Cell Plating Media for hP2X3-HEK and hP2X2/3-TRex293 Cells • DMEM/F12 (1:1) HAM media (Invitrogen; Cat#11039) • 1×NEAA (Invitrogen; Cat#11140) • 25 mM HEPES (Invitrogen; Cat#15630) • 1 mM sodium pyruvate (Invitrogen; Cat#11360) • 10% tetracycline negative FBS (PAA; Cat# A15-209) • 1 μg/mL doxycycline (Clontech; Cat#63131) [for hP2X2/3-TRex293 cells only]
(iii) Cell Plating Media for rP2X2/3-TRex293 Cells • DMEM media (Invitrogen; Cat#11965) • 25 mM HEPES (Invitrogen; Cat#15630) • 10% tetracycline negative FBS (PAA; Cat# A15-209) • 1 μg/mL Doxycycline (Clontech; Cat#63131)
(v) Assay Buffer Composition • HBSS (Invitrogen Cat#14025) • 20 mM HEPES (Invitrogen Cat#15630) • 0.01% F127 (Sigma Cat# P2443) • 1.8 mM CaCl2 (Sigma Cat# C5080) • pH adjusted to 7.4 […]

SMILES | IC50 (P2X3) [nM] | IC50 (P2X2/3) [nM]
Cc1ccc(-c2cnc3c(-n4nncc4C(F)F)cc(C(=O)N[C@@H](C)c4nnco4)cn23)s1 [Example 14, (S)—N-(1-(1,3,4-Oxadiazol-2-yl)ethyl)-8-(5-(difluoromethyl)-1H-1,2,3-triazol-1-yl)-3-(5-methylthiophen-2-yl)imidazo[1,2-a]pyridine-6-carboxamide] | 1 to 100 | 100 to 1000
Cc1cccc(-c2cnc3c(N4CCC(C)CC4)cc(C(=O)N[C@@H](C)c4ncn[nH]4)cn23)c1 [Example 149] | 100 to 1000 | 1000 to 10000
CCCSc1cnc2c(N3CCC(C)CC3)cc(C(=O)N[C@@H](C)c3nnc[nH]3)cn12 [Example 10, (S)—N-(1-(4H-1,2,4-Triazol-3-yl)ethyl)-8-(4-methylpiperidin-1-yl)-3-(propylthio)imidazo[1,2-a]pyridine-6-carboxamide] | 100 to 1000 | 1000 to 10000
C[C@H](NC(=O)c1cc(-n2nncc2C(F)F)c2ncc(-c3ccc(C(F)(F)F)s3)n2c1)c1nnc[nH]1 [Example 59] | 100 to 1000 | 1000 to 10000
Cc1ccc(-c2cnc3c(Nc4nccs4)cc(C(=O)N[C@@H](C)c4nnc[nH]4)cn23)s1 [Example 92] | 100 to 1000 | 1000 to 10000
COC1CCN(c2cc(C(=O)N[C@@H](C)c3nnc[nH]3)cn3c(-c4ccc(C)s4)cnc23)C1 (stereo partly drawn) [Example 138] | 1 to 100 | 100 to 1000
Cc1ccc(CNC(=O)c2cc(-c3c(C)noc3C)c3ncc(-c4ccc(C)s4)n3c2)cn1 [Example 106] | > 10000 | 1 to 100
Cc1csc(-c2cnc3c(N4CCC(F)(F)CC4)cc(C(=O)N[C@@H](C)c4nnc[nH]4)cn23)c1 [Example 136] | 1 to 100 | 100 to 1000
CCc1nnc(-c2cc(C(=O)NCc3ccc(C)nc3)cn3c(-c4ccc(C)s4)cnc23)o1 [Example 21] | 1 to 100 | 100 to 1000
Cc1ncc(CNC(=O)c2cc(-n3nnnc3C(F)F)c3ncc(-c4ccc(C)o4)n3c2)cn1 [Example 183] | 100 to 1000 | 100 to 1000
Cc1ccc(-c2cnc3c(N4CCC(F)CC4)cc(C(=O)N[C@@H](C)c4nnc[nH]4)cn23)s1 [Example 137] | 1 to 100 | 100 to 1000
Cc1ncc(CNC(=O)c2cc(-n3nncc3C(F)F)c3ncc(-c4ccc(C)s4)n3c2)cn1 [Example 31] | 1 to 100 | 1 to 100
Cc1ccc(-c2cnc3c(-n4nnnc4C(C)(F)F)cc(C(=O)N[C@@H](C)c4nnc[nH]4)cn23)s1 [Example 182] | 1 to 100 | 1 to 100
Cc1ncc(CNC(=O)c2cc(-n3nnnc3C(F)F)c3ncc(-c4ccc(C)s4)n3c2)cn1 [Example 177] | 1 to 100 | 1 to 100
CCc1cnnn1-c1cc(C(=O)N[C@H](c2nnc[nH]2)C(C)C)cn2c(-c3ccc(C)s3)cnc12 [Example 73] | 100 to 1000 | 100 to 1000

The next lines start with the values.

IC50 (P2X3) [nM] | IC50 (P2X2/3) [nM] | SMILES
> 10000 | 100 to 1000 | Cc1ccc(-c2cnc3c(-n4nnnc4C(C)C)cc(C(=O)NCc4ccc(C(F)(F)F)nc4)cn23)s1 [Example 152]
100 to 1000 | 100 to 1000 | COc1ccccc1Nc1cc(C(=O)N[C@@H](C)c2nnc[nH]2)cn2c(-c3ccc(C)s3)cnc12 [Example 96]
> 10000 | 1 to 100 | Cc1ncc(CNC(=O)c2cc(-c3c(C)n[nH]c3C)c3ncc(-c4ccc(C)s4)n3c2)cn1 [Example 111]
1 to 100 | 1 to 100 | Cc1ccc(-c2cnc3c(-n4nncc4C(F)F)cc(C(=O)N[C@@H](C)c4nnc[nH]4)cn23)s1 [Example 4, (S)—N-(1-(4H-1,2,4-Triazol-3-yl)ethyl)-8-(5-(difluoromethyl)-1H-1,2,3-triazol-1-yl)-3-(5-methylthiophen-2-yl)imidazo[1,2-a]pyridine-6-carboxamide]
1 to 100 | 1 to 100 | Cc1ncc(CNC(=O)c2cc(-n3nncc3C(F)F)c3ncc(-c4ncc(C)s4)n3c2)cn1 [Example 47]
1 to 100 | 1 to 100 | Cc1ccc(-c2cnc3c(-n4nncc4C(C)(C)C)cc(C(=O)N[C@@H](C)c4nnc[nH]4)cn23)s1 [Example 46]
1 to 100 | 1 to 100 | Cc1ccc(CNC(=O)c2cc(-n3nnnc3C(F)F)c3ncc(-c4ccc(C)s4)n3c2)cn1 [Example 18, 8-(5-(Difluoromethyl)-1H-tetrazol-1-yl)-N-((6-methylpyridin-3-yl)methyl)-3-(5-methylthiophen-2-yl)imidazo[1,2-a]pyridine-6-carboxamide]
1 to 100 | 100 to 1000 | Cc1ccc(CNC(=O)c2cc(-n3nnnc3C(C)C)c3ncc(-c4ccc(C)s4)n3c2)cn1 [Example 151]
1 to 100 | 1 to 100 | Cc1ncc(CNC(=O)c2cc(-n3nncc3C(C)(F)F)c3ncc(-c4ccc(C)s4)n3c2)cn1 [Example 72]
1 to 100 | 1 to 100 | Cc1ccc(-c2cnc3c(-n4nncc4C4CC4)cc(C(=O)N[C@@H](C)c4nnc[nH]4)cn23)s1 [Example 34]
1 to 100 | 100 to 1000 | CCn1nccc1-c1cc(C(=O)N[C@@H](C)c2nnc[nH]2)cn2c(-c3ccc(C)s3)cnc12 [Example 103]
1 to 100 | 100 to 1000 | COC1(C)CCN(c2cc(C(=O)N[C@@H](C)c3nnc[nH]3)cn3c(-c4ccc(C)s4)cnc23)C1 (stereo partly drawn) [Example 142]
